# Experimental data taken from patent publication US9447055B1, “α-amino esters of hydroxypropylthiazolidine carboxamide derivative and salt form, crystal polymorph thereof” (Merck Serono S.A., priority 2016, dated 2016).
# Entries after “also recorded” stand apart in the source; their conditions may differ.
# Key:
# Caco-2 cell monolayer = assay: bidirectional permeability across Caco-2 cell monolayers; format: in vitro ADME, human; conditions: for efflux: bi-directional
# Protocol: (§1) Compound I was dissolved in HBSS buffer (1% DMSO final concentration) at the concentrations of 1.5, 3 and 6 μM. Each concentration/sampling time was run in duplicate well. The test was performed in a gradient pH: the apical compartment (mucosal) was at pH 6.5, the basolateral compartment (serosal) was at pH 7.4.
# Apical to basolateral (A→B, mucosal to serosal) transport: 200 μL of each concentration of compound I was added to the apical compartment and 400 μL of HBSS was added to the basolateral compartment. The plates were incubated at 37° C. An aliquot of the basolateral compartment was sampled after 60 and 120 min (t=60 and t=120). An aliquot of the apical compartment was sampled at the starting time (t=0) and after 120 min. (t=120).
# Basolateral to apical (B→A, serosal to mucosal) transport: 400 μL of each concentration of compound I was added to the basolateral compartment and 200 μL of HBSS was added to the apical compartment. The plates were incubated at 37° C. An aliquot of the apical compartment was sampled after 60 and 120 min (t=60 and t=120). An aliquot of the basolateral compartment was sampled at the starting time (t=0) and after 120 min. (t=120). All samples were analyzed by LC/MS monitoring both compound I and the appearance of compound II.
# Compound II was dissolved in HBSS buffer (1% DMSO final concentration) at the concentrations of 1.5, 3 and 6 μM. Each concentration/sampling time was run in duplicate well. The test was performed in a gradient pH: the apical compartment (mucosal) was at pH 6.5, the basolateral compartment (serosal) was at pH 7.4.
# Apical to basolateral (A→B, mucosal to serosal) transport: 200 μL of each concentration of compound II was added to the apical compartment and 400 μL of HBSS was added to the basolateral compartment. The plates were incubated at 37° C. An aliquot of the basolateral compartment was sampled after 60 and 120 min (t=60 and t=120). An aliquot of the apical compartment was sampled at the starting time (t=0) and after 120 min. (t=120).
# Basolateral to apical (B→A, serosal to mucosal) transport: 400 μL of each concentration of compound II was added to the basolateral compartment and 200 μL of HBSS was added to the apical compartment. The plates were incubated at 37° C. An aliquot of the apical compartment was sampled after 60 and 120 min (t=60 and t=120). An aliquot of the basolateral compartment was sampled at the starting time (t=0) and after 120 min. (t=120). All samples were analyzed by LC/MS monitoring compound II.
# [1] = tested on: spontaneous uterine contractions; assay: spontaneous uterine activity in late-term anaesthetized pregnant rat; format: in vivo; conditions: late-term pregnant rats; for reduction of spontaneous uterine contractions: i.v. or oral, maximal effect at 30 mg/kg i.v. and 60 mg/kg oral; for intravenous activity compared with atosiban: i.v.
# Excerpt: The tocolytic effects of compound I and compound II were investigated in a model of spontaneous uterine activity in late-term (19-21 days of gestation) anaesthetized pregnant rat (Kawarabayashi et al. Am. J. Obstet. Gynecol. 175:1348-1355 (1996) and Shinkai et al. J. Pharm. Pharmacol. 52:1417-1423 (2000)). Briefly, late-term pregnant female rats were anaesthetized with urethane. One pregnant uterine horn was exposed and a polyethylene catheter bearing on the tip a latex balloon filled with saline was inserted into the lumen. The catheter was connected to an amplifying/recording system via a pressure-transducer. […] For the i.v. administration the uterine contractile activity was quantified by calculating the AUC during the 10 min injection period. The percent variation of the AUC values relative to the spontaneous uterine response observed after each compound administration was calculated in comparison to the value recorded before the first dose-administration (basal value). The effect of compound I or compound II was evaluated by comparing pre- and post-treatment luminal uterine pressure values. For the oral administration the same computation procedure was applied at different time points after treatment. Statistical differences between treatment groups at each time-point were determined by using one-way ANOVA followed by Tukey test. Both compounds intravenously or orally administered were able to markedly reduce spontaneous uterine contractions by around 40-50% (maximal effect obtained at 30 mg/kg by i.v. route and 60 mg/kg by oral route).
# [2] = molecular target: prostaglandin E receptor 2 (EP2) (Homo sapiens (Human), UniProt P43116); conditions: FP over EP2
# Protocol: (§2) Selectivity of compound II was tested against all eight prostaglandin receptor subtypes.
# [3] = tested on: other prostaglandin receptor subtypes; conditions: FP over other subtypes
# Protocol: as §2
# [4] = solubility in water and simulated intestinal media; format: physicochemical
# [5] = tested on: panel of 50 receptors, channels and enzymes binding sites; conditions: 1 μM
# human FP = human FP (Homo sapiens (Human), UniProt P43088); assay: IP3 synthesis in FP-transfected HEK293-EBNA cells; format: cell-based
# Protocol: The functional characterization of compound II on human FP was performed in transfected HEK293-EBNA cells.
# [6] = stability in HBSS transport buffer; format: in vitro ADME; conditions: 37° C., 60 and 120 minutes
# Protocol: Stability of both compound I and compound II was assessed during the test. These compounds were dissolved in HBSS buffer (1% DMSO final concentration) at the concentrations of 1.5, 3 and 6 μM. An aliquot of each solution was sampled at time zero (t=0) to assess the starting concentrations of the compounds. The solutions were incubated at 37° C. for the duration of the transport experiment. An aliquot of each solution was sampled at the end of experiment (t=120) to assess the final concentrations of compound I and compound II. Samples were analyzed by LC-MS.
# human FP-R = human FP-R (Homo sapiens (Human), UniProt P43088); assay: competitive radioligand binding, recombinant FP receptor expressed in HEK293-EBNA cells
# Protocol: The potency of inhibition of compound I and compound II on prostaglandin F2α receptor was assessed by analyzing the affinity of these compounds for recombinant FP receptor expressed in HEK293-EBNA cells.
# PepT1 transporter = PepT1 transporter (Homo sapiens (Human), UniProt P46059); assay: mucosal-to-serosal Caco-2 transport after Gly-Sar pre-treatment; format: in vitro ADME; conditions: 10 mM Gly-Sar pre-treatment; for compound I passage to receiving compartment after Gly-Sar pre-treatment: A→B
# Protocol: The differentiated cells were pre-treated for 30 min. with 10 mM of Gly-Sar in order to block the active transporter PepT1.
# as §1
# Apical to basolateral (A→B, mucosal to serosal) transport: 200 μL of each concentration of compound I was added to the apical compartment and 400 μL of HBSS was added to the basolateral compartment. The plates were incubated at 37° C. An aliquot of the basolateral compartment was sampled after 60 and 120 min (t=60 and t=120). An aliquot of the apical compartment was sampled at the starting time (t=0) and after 120 min. (t=120). All samples were analyzed by LC/MS monitoring both compound I and the appearance of compound II.
# [7] = non-specific binding to cell-free transwells; format: in vitro ADME
# Protocol: Non-specific binding and recovery was assessed across cell-free transwells.
# Compound I was tested at 1.5, 3 and 6 μM in duplicate cell-free transwells. The test was performed in a pH gradient between the apical and the basolateral compartment. […] The following sampling times were performed: 60 and 120 min for the basolateral compartment (receiver) and 120 min for the apical compartment (donor). Samples obtained were analyzed by LC-MS, both compound I and compound II were monitored in order to assess percent of recovery.
# [8] = in vivo conversion of compound I to compound II; conditions: following gastrointestinal tract administration
# Protocol: The invention is based on the discovery that compound I ((3S)-3-({[(2S)-3-(biphenyl-4-ylsulfonyl)-1,3-thiazolidin-2-yl]carbonyl}-amino)-3-(4-fluorophenyl)propyl L-valinate, represented by formula I, below) and salts thereof are converted in vivo to 3-([1,1′-biphenyl]-4-ylsulfonyl)-N-[1-(4-fluorophenyl)-3-hydroxypropyl]-1,3-thiazolidine-2-carboxamide (represented by formula II, below).
# Compound II is a competitive and reversible prostaglandin F2α receptor antagonist (human FP2α receptor Ki=6 nM) that is under development for the management of pre-term labor by inhibition of premature uterine contractions.
# [9] = aqueous solubility of compound I salts; format: physicochemical; conditions: water
# [10] = moisture sorption/desorption and relative humidity stability of salts; format: physicochemical; conditions: for hygroscopicity: moisture balance data, hydrochloride
# Protocol: Moisture sorption/desorption (MB) data were collected on a VTI SGA-100 Vapor Sorption Analyzer. Sorption and desorption data were collected over a range of 5% to 95% relative humidity (RH) at 10% RH intervals under a nitrogen purge. Samples were not dried prior to analysis. Equilibrium criteria used for analysis were less than 0.0100% weight change in 5 minutes, with a maximum equilibration time of 3 hours if the weight criterion was not met. Data were not corrected for the initial moisture content of the samples. NaCl and PVP were used as calibration standards.
# [11] = FaSSIF pH 6.5, read-out: Solubility in FaSSIF
# [12] = FeSSIF pH 5.0, read-out: Solubility in FeSSIF
# [13] = water, read-out: Solubility in water
# human FP, sequence (P43088 whole entry): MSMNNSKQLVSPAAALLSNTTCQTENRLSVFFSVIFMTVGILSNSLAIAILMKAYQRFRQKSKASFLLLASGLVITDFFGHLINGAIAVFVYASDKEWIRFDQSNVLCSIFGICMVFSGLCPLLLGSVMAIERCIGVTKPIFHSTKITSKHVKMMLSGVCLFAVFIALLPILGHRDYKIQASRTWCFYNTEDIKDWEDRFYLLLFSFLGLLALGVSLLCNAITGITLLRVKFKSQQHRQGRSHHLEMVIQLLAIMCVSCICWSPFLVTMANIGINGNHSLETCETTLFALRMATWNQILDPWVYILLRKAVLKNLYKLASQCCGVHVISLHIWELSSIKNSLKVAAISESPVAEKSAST
# human FP-R, sequence (P43088 whole entry): as above
# prostaglandin E receptor 2 (EP2), sequence (P43116 whole entry): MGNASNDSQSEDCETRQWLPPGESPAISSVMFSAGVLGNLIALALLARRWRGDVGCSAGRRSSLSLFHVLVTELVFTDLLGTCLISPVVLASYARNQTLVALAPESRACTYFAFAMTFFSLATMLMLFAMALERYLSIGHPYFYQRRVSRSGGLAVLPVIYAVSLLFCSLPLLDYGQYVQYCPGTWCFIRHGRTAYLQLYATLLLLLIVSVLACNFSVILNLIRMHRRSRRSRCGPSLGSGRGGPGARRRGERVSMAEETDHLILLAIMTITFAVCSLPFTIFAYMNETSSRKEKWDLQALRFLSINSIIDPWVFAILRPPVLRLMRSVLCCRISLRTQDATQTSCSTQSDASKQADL
compound,measurement,setting,value
"O=C(N[C@@H](CCO)c1ccc(F)cc1)[C@@H]1SCCN1S(=O)(=O)c1ccc(-c2ccccc2)cc1 (stereo in doubt) [Compound II, 3-([1,1′-biphenyl]-4-ylsulfonyl)-N-[1-(4-fluorophenyl)-3-hydroxypropyl]-1,3-thiazolidine-2-carboxamide]",passive passage through the Caco-2 monolayer,Caco-2 cell monolayer,good passive passage
same,passage apical to basolateral,Caco-2 cell monolayer; A→B,good percentage of passage
same,permeability basolateral to apical,Caco-2 cell monolayer; B→A,low rate of permeability
same,efflux,Caco-2 cell monolayer,No efflux was detected
same,efflux,Caco-2 cell monolayer; listed as compound II,Evidence was not found that compound II might be a substrate for an efflux transporter
same,reduction of spontaneous uterine contractions,[1],40-50%
same,intravenous activity compared with atosiban,[1],comparable or slightly higher than that of the tocolytic drug atosiban
same,Selectivity versus prostaglandin E receptor 2 (EP2),[2],approximately 10 fold
same,Selectivity against other prostaglandin receptors,[3],higher than 100 fold
same,solubility,[4]; [11],0.4 µg/mL
same,solubility,[4]; [12],10 µg/mL
same,solubility,[4]; [13],0.4 µg/mL
same,"Selectivity in panel of 50 receptors, channels and enzymes binding sites",[5],high selectivity for FP
same,IC50,"human FP; FP/HEK293-EBNA cells, read-out: inhibition of synthesis of IP3, IC50",60 nM
same,agonist activity: synthesis of IP3 when added alone,"human FP; tested up to 10 μM, added alone",did not induce any synthesis of IP3
same,stability in HBSS buffer,[6],stable
same,Ki,human FP-R,6 nM
"CC(C)[C@H](N)C(=O)OCC[C@H](NC(=O)[C@@H]1SCCN1S(=O)(=O)c1ccc(-c2ccccc2)cc1)c1ccc(F)cc1 [Compound I, (3S)-3-({[(2S)-3-(biphenyl-4-ylsulfonyl)-1,3-thiazolidin-2-yl]carbonyl}-amino)-3-(4-fluorophenyl)propyl L-valinate]","compound I in basolateral (receiving) compartment, apical to basolateral","Caco-2 cell monolayer; A→B, 60 and 120 minutes, 1.5, 3 and 6 μM",not detected
same,"compound I in apical (receiving) compartment, basolateral to apical","Caco-2 cell monolayer; B→A, 60 and 120 minutes",not detected
same,recovery of compound I in apical compartment at end of apical to basolateral experiment,"Caco-2 cell monolayer; apical compartment, 120 min","primarily recovered in the form of the de-esterified variant, compound II; also recorded: low recovery"
same,passage through the Caco-2 cell monolayer,Caco-2 cell monolayer; bi-directional permeability test,did not pass through the cell monolayer
same,PepT1 mediation of transport,PepT1 transporter,likely not mediated by PepT1
same,compound I passage to receiving compartment after Gly-Sar pre-treatment,PepT1 transporter,not detected
same,compound I passage to receiving compartment after Gly-Sar pre-treatment,PepT1 transporter; listed as compound I,no passage
same,non-specific binding,"[7]; cell-free transwells, 1.5, 3 and 6 μM",excluded
same,detection in basolateral compartment of cell-free transwell,"[7]; cell-free transwells, any dose tested",not detected
same,reduction of spontaneous uterine contractions,[1],40-50%
same,intravenous activity compared with atosiban,[1],comparable or slightly higher than that of the tocolytic drug atosiban
same,solubility,[4]; [11],70 µg/mL
same,solubility,[4]; [12],90 µg/mL
same,solubility,[4]; [13],380 µg/mL
same,conversion to compound II,[8],rapidly converted to compound II
same,stability in HBSS buffer,[6],stable
same,Ki,human FP-R,1 nM
"CC(C)[C@H](N)C(=O)OCC[C@H](NC(=O)[C@@H]1SCCN1S(=O)(=O)c1ccc(-c2ccccc2)cc1)c1ccc(F)cc1.Cl [Compound III, (3S)-3-({[(2S)-3-(biphenyl-4-ylsulfonyl)-1,3-thiazolidin-2-yl]carbonyl}-amino)-3-(4-fluorophenyl)propyl L-valinate hydrochloride]",solubility,[9],< 1000 µg/mL
same,deliquescence,[10]; 2 days at approximately 95% RH,did not deliquesce
same,weight loss upon desorption,[10]; desorption after sorption to 95% RH,approximately 0.7%
same,weight gain on sorption,[10]; from 5 to 95% relative humidity,Approximately 0.9%
same,hygroscopicity,[10],low hygroscopicity
same,hygroscopicity,[10]; listed as chloride salt,non-hygroscopic
same,hygroscopicity,[10]; listed as hydrochloride salt,low hygroscopicity; also recorded: non-hygroscopic
